Measured values published in US11566029B2, “Pyrazolo[1,5-a]pyrimidine-5,7-diamine compounds as CDK inhibitors and their therapeutic use” (CANCER RESEARCH TECHNOLOGY LIMITED, priority 2014, dated 2023).
Where a name gives a salt, the structure may show the parent alone. Read-outs that look alike come from different tables or passages of the source.

Experiments:
[1] = test system: phospho-ER S118 in MCF-7 cells; experiment: Immunoblot of ER serine-118 phosphorylation in MCF-7 cells; type: cell-based; details: 1 μmol/L, time course, FIG. 6
Protocol: Cell lysates were prepared by the addition of RIPA buffer (Sigma-Aldrich, cat no: R0278). Immunoblotting was carried out using standard methods (see, e.g., Harlow & Lane, 1988, Antibodies: A Laboratory Manual, Cold Spring Harbor Laboratory Press, USA), with antibodies for the protein or phosphorylation mark indicated. β-actin was used as control for protein loading. The second antibody was HRP-coupled Goat anti Mouse or Rabbit IgG.

[2] = test system: HCT116 cells; experiment: Cell growth inhibition assay (sulforhodamine B), HCT116; type: cell-based; details: Homo sapiens, HCT-116
Protocol: (§1) All cells were purchased from the American Type Culture Collection (ATCC) and MCF7 cells were routinely cultured in Dulbecco's Modified Eagle's Medium (DMEM) supplemented with 10% fetal calf serum (FCS) (First Link) and HCT116 cells were routinely cultured in Roswell Park Memorial Instititute Medium (RPMI) supplemented with 10% FCS. Cell growth was assessed using a known sulforhodamine B assay (see, e.g., Skehan et al., 1990).
(§2) MCF-7 cells purchased from ATCC (USA) were routinely passaged in DMEM, supplemented with 10% FCS and HCT116 cells purchased from ATCC (USA) were routinely passaged in RPMI supplemented with 10% FCS and kept in a 37° C. incubator with 5% CO2. The growth assay for both cell lines was performed in the appropriate media using the exact same protocol as described here. For the growth assay, 5000 cells were seeded into each well of 96-well plates in DMEM containing 10% FCS. Test compounds prepared in DMSO were added to the medium at concentrations ranging from 0.00038-100 μM. The cells were incubated for a further 72 hours, at which time they were fixed by the addition of 100 μL/well of ice-cold 40% trichloroacetic acid (TCA). The plates were left for 1 hour at 4° C., washed in water and 100 μL of 0.4% (w/v) sulforhodamine (SRB; Sigma-Aldrich, UK) prepared in 1% acetic acid was added. Plates were washed in 1% acetic acid to remove excess SRB reagent, air dried, and bound dye was solubilized by the addition of 100 μL of 10 mM tris base. The plates were read at 492 nm using a plate reader.

[3] = target: T1, CDK4/cycD1 (Homo sapiens, UniProt P11802); experiment: In vitro kinase assay (PKLight luciferase ATP readout), CDK4; type: biochemical; details: ATP at Km; three experiments
T1 construct: purchased ProQinase GmbH
T1 sequence (P11802 whole entry): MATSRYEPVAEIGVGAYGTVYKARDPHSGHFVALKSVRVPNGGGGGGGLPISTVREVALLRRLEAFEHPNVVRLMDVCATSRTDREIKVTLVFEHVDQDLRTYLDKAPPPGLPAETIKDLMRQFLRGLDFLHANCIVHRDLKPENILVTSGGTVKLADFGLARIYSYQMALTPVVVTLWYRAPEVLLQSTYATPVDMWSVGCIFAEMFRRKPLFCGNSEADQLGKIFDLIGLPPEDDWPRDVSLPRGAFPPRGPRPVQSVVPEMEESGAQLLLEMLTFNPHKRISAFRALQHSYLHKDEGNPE
T1 sequence (P24385 whole entry partner): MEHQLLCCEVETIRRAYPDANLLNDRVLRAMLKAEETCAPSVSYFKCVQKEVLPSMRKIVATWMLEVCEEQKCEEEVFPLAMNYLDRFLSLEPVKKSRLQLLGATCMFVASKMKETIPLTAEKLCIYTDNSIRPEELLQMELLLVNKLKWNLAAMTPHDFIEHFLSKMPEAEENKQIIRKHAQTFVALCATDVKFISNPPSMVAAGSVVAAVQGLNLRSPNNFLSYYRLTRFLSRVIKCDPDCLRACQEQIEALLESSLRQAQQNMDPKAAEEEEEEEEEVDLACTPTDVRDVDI
Protocol: (§3) Purified recombinant CDK1/cycA1, CDK2/cycA1, CDK4/cycD1, CDK5/p35NCK, CDK6/cycD1, CDK7/CycH/MAT1, and CDK9/CycT1 were purchased from ProQinase GmbH. Kinase assays were performed according to manufacturer's protocols. Rb-CTF (ProQinase GmbH) (cat number: 0040-0000-6) was used as the kinase substrate for CDK1, CDK2, CDK4, and CDK6 kinases. […] A luciferase assay (PKLight assay; Cambrex) was used to determine ATP remaining at the end of the kinase reaction, which provides a measure of kinase activity, according to the manufacturer's protocols.
(§4) Kinase assays were carried out by incubation of increasing amounts of test compound with purified recombinant CDK-Cyclin complex, followed by measurement of free ATP remaining in the reaction using the luciferase assay kit (PKLight, Cambrex) which therefore provided a measure of inhibition for the specific CDK.
(§5) 5 μL of 1× kinase buffer (Cell Signalling Technologies) was mixed with 200 ng CDK1, 200 ng CDK2, 50 ng CDK4, 100 ng CDK5, or 200 ng CDK6 with 5 μg Rb-CTF and 300 ng CDK7 or 200 ng CDK9 with 500 μM RNA Poll II CTD peptide. […] The mixture was incubated at 30° C. for 30 minutes. […] Then 40 μL of the luciferase mix was added to the reaction mixture which was incubated for a further 10 minutes at room temperature and measured using the Tecan Infinite 2000 plate reader. […]

[4] = test system: MCF7 cells; experiment: Cell growth inhibition assay (sulforhodamine B), MCF7; type: cell-based; details: Homo sapiens
Protocol: as §1, §2

[5] = target: T2, CDK6/cycD1 (Homo sapiens, UniProt Q00534); experiment: In vitro kinase assay (PKLight luciferase ATP readout), CDK6; type: biochemical; details: ATP at Km; three experiments
T2 construct: purchased ProQinase GmbH
T2 sequence (Q00534 whole entry): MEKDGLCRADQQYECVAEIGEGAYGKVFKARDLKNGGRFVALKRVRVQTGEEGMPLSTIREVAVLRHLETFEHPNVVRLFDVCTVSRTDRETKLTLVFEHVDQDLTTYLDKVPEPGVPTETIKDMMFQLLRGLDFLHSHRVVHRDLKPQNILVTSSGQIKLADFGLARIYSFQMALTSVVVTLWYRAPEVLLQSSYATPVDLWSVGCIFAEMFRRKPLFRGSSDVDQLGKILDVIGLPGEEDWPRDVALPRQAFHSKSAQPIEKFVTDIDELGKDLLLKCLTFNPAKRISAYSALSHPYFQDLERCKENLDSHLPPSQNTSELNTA
T2 sequence (P24385 whole entry partner): as the sequence (P24385 whole entry partner) above
Protocol: as §3, §4, §5

[6] = target: T3, CDK5/p35NCK (Homo sapiens, UniProt Q00535); experiment: In vitro kinase assay (PKLight luciferase ATP readout), CDK5; type: biochemical; details: ATP at Km; three experiments
T3 construct: purchased ProQinase GmbH
T3 sequence (Q00535 whole entry): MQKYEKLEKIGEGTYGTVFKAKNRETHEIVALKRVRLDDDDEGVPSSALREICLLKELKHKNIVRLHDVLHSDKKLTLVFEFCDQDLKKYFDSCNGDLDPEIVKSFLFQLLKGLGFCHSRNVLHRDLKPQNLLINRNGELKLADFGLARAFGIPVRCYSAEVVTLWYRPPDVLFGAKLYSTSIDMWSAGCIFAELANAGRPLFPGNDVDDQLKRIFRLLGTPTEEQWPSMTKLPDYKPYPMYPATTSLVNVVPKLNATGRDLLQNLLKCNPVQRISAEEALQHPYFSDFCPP
T3 sequence (Q15078 whole entry partner): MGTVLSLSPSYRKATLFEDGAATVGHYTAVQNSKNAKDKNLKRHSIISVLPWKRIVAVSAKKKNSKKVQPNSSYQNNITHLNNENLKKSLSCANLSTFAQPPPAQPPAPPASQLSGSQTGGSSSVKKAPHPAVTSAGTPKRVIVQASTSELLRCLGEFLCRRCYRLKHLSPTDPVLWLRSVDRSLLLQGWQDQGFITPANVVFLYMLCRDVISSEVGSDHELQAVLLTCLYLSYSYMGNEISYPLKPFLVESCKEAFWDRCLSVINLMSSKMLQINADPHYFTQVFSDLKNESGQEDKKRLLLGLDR
Protocol: as §3, §4, §5

[7] = test system: human tumor cell lines (NCI60); experiment: NCI60 cancer cell line screen; type: cell-based
Source text: To extend the analysis to a more extensive set of cancer cell lines, PPDA-001 was submitted to the National Cancer Institute's Division of Cancer Treatment and Diagnosis in vitro screen of human tumor cell lines (http://dtp.nci.nih.gov/branches/btb/ivclsp.html).
Each line represents one cell line.

[8] = target: T4, CDK1/cycA1 (Homo sapiens, UniProt P06493); experiment: In vitro kinase assay (PKLight luciferase ATP readout), CDK1; type: biochemical
T4 construct: purchased ProQinase GmbH
Protocol: as §3, §4
(§6) 5 μL of 1× kinase buffer (Cell Signalling Technologies) was mixed with 200 ng CDK1, 200 ng CDK2, 50 ng CDK4, 100 ng CDK5, or 200 ng CDK6 with 5 μg Rb-CTF and 300 ng CDK7 or 200 ng CDK9 with 500 μM RNA Poll II CTD peptide. […] The mixture was incubated at 30° C. for 30 minutes. The reaction is stopped with 20 μL of Stop Solution (provided in the PKLight kit) for 10 minutes at room temperature. Then 40 μL of the luciferase mix was added to the reaction mixture which was incubated for a further 10 minutes at room temperature and measured using the Tecan Infinite 2000 plate reader. GraphPad Prism Software was used to generate standard curve and determine the IC50's for each CDK.

[9] = test system: HCT116 tumour xenograft; experiment: HCT116 tumour xenograft study; type: in vivo, female Balb/c nu/nu mice
[10] = target: T5, CDK2/cycA1 (Homo sapiens, UniProt P24941); experiment: In vitro kinase assay (PKLight luciferase ATP readout), CDK2; type: biochemical; details: ATP at Km; read-out: In vitro Kinase Inhibition CDK2 IC50
T5 construct: purchased ProQinase GmbH
Protocol: as §3, §4, §6

[11] = target: T6, CDK7/CycH/MAT1 (Homo sapiens, UniProt P50613); experiment: In vitro kinase assay (PKLight luciferase ATP readout), CDK7; type: biochemical; details: for IC50: ATP at Km, read-out: In vitro Kinase Inhibition CDK7 IC50; for Selectivity CDK1/CDK7: ratio of CDK1 IC50 to CDK7 IC50; for Selectivity CDK2/CDK7: ratio of CDK2 IC50 to CDK7 IC50
T6 construct: purchased ProQinase GmbH
T6 sequence (P50613 whole entry): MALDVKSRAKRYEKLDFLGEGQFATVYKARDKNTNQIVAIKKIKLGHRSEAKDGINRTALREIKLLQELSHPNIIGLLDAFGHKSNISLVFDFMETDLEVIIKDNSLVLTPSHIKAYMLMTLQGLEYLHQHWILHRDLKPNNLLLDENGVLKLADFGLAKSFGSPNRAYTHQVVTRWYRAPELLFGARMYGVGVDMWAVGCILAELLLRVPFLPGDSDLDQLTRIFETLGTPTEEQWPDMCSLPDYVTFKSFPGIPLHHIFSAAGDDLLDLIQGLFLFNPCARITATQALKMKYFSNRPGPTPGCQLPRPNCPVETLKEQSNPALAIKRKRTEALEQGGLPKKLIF
T6 sequence (P51946 whole entry partner): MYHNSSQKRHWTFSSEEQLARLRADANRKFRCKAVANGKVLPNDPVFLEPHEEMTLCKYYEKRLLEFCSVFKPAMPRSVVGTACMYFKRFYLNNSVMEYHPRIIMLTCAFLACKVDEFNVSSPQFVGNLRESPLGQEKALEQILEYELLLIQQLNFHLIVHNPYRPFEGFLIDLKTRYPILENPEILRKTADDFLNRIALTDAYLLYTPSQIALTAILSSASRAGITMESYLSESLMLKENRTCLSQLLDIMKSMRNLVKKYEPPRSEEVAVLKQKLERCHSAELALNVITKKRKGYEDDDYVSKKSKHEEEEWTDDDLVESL
T6 sequence (P51948 whole entry partner): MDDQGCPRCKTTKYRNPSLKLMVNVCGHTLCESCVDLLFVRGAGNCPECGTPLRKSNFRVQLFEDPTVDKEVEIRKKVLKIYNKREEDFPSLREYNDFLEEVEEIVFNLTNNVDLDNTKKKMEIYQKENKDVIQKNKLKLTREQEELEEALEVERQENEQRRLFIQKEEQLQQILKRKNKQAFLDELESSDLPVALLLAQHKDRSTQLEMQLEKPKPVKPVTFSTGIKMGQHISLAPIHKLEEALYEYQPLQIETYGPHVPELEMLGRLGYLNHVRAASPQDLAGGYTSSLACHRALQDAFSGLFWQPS
Protocol: as §3, §4, §6

[12] = 72 hours, SRB assay, read-out: Growth Inhibition, GI50 HCT116
[13] = 72 hours, SRB assay, read-out: Growth Inhibition, GI50 MCF7
[14] = ATP at Km, read-out: In vitro Kinase Inhibition CDK1 IC50

GI50 [2, 12]	GI50 ([2]; read-out: GI50, colorectal (HCT116) cancer cell line)	IC50 [3]	GI50 [4, 13]	GI50 ([4]; read-out: GI50, breast (MCF7) cancer cell line)	IC50 [5]	IC50 [6]	IC50 [8]	IC50 [10]	IC50 [11]	Selectivity CDK1/CDK7 [11]	Selectivity CDK2/CDK7 [11]	IC50 [8, 14]	Compound	phosphorylation of ER at serine-118 (phospho-ER S118) [1]	GI50 ([7]; mean of all 60 cell lines, read-out: mean GI50 over 60 cancer cell lines)	GI50 ([7]; range over all 60 cell lines, read-out: range GI50 over 60 cancer cell lines)	reduction in tumor growth ([9]; 50 mg/kg/bi-daily and 100 mg/kg once daily PO, compared with the control arms)	Animal weight (percent body weight) ([9]; PPDA-001 treatment arms (50 mg/kg bi-daily, 100 mg/kg once daily, PO), over the course of the study, vehicle 98%)
25000 nM	–	–	11900 nM	–	–	–	–	115 nM	788 nM	4.6 fold	0.1 fold	3620 nM	CC(C)c1cnn2c(NCc3ccncc3)cc(NCC3(O)CCNCC3)nc12 [PPDA-010, 4-(((3-iso-Propyl-7-((pyridin-4-ylmethyl)amino)pyrazolo[1,5-a]pyrimidin-5-yl)amino)methyl)piperidin-4-ol hydrochloride]	–	–	–	–	–
1600 nM	–	–	300 nM	–	–	–	–	98 nM	414 nM	0.3 fold	0.2 fold	143 nM	CC(C)c1cnn2c(NCc3ccccc3Cl)cc(NCC3(O)CCNCC3)nc12 [PPDA-011]	–	–	–	–	–
1600 nM	–	–	500 nM	–	–	–	–	118 nM	484 nM	0.2 fold	0.2 fold	74 nM	CC(C)c1cnn2c(NCc3ccccc3Br)cc(NCC3(O)CCNCC3)nc12 [PPDA-012]	–	–	–	–	–
1100 nM	–	–	1200 nM	–	–	–	–	344 nM	80 nM	4.1 fold	4.3 fold	330 nM	CC(C)c1cnn2c(NCC3CCCCC3)cc(NCC3(O)CCNCC3)nc12 [PPDA-013]	–	–	–	–	–
10400 nM	–	–	3700 nM	–	–	–	–	568 nM	73 nM	26 fold	7.8 fold	1900 nM	CC(C)c1cnn2c(NCc3ccccc3)cc(N[C@@H]3CNCC[C@H]3O)nc12 [PPDA-022, (3R,4R)-3-(7-(Benzylamino)-3-iso-propyl-pyrazolo[1,5-a]pyrimidin-5-ylamino) piperidin-4-ol]	–	–	–	–	–
46400 nM	–	–	12200 nM	–	–	–	–	1030 nM	150 nM	5.6 fold	6.8 fold	844 nM	CC(C)c1cnn2c(NCc3ccccc3)cc(N[C@H]3CNCC[C@@]3(O)CO)nc12 [PPDA-024]	–	–	–	–	–

Further lines, the compound ahead of its results:

Compound	GI50 [2, 12]	GI50 ([2]; read-out: GI50, colorectal (HCT116) cancer cell line)	IC50 [3]	GI50 [4, 13]	GI50 ([4]; read-out: GI50, breast (MCF7) cancer cell line)	IC50 [5]	IC50 [6]	IC50 [8]	IC50 [10]	IC50 [11]	Selectivity CDK1/CDK7 [11]	Selectivity CDK2/CDK7 [11]	IC50 [8, 14]	phosphorylation of ER at serine-118 (phospho-ER S118) [1]	GI50 ([7]; mean of all 60 cell lines, read-out: mean GI50 over 60 cancer cell lines)	GI50 ([7]; range over all 60 cell lines, read-out: range GI50 over 60 cancer cell lines)	reduction in tumor growth ([9]; 50 mg/kg/bi-daily and 100 mg/kg once daily PO, compared with the control arms)	Animal weight (percent body weight) ([9]; PPDA-001 treatment arms (50 mg/kg bi-daily, 100 mg/kg once daily, PO), over the course of the study, vehicle 98%)
CC(C)c1cnn2c(NCc3ccccc3)cc(NC[C@H]3CCNC[C@@H]3O)nc12 [PPDA-001, (3R,4R)-4-(((7-(Benzylamino)-3-isopropylpyrazolo[1,5-a]pyrimidin-5-yl)amino)methyl)piperidin-3-ol hydrochloride]	630 nM	< 1000 nM	42100 nM	960 nM	< 1000 nM	32100 nM	9000 nM	1520 nM	–	–	–	–	–	inhibits phosphorylation of ER at serine-118	280 nM	40 to 2100 nM	65%	92%
CC(C)c1cnn2c(NCC3CCCCC3)cc(N[C@H]3CNC[C@H]3O)nc12 [PPDA-016]	7400 nM	–	–	13100 nM	–	–	–	–	4550 nM	246 nM	5.9 fold	18 fold	1460 nM	–	–	–	–	–
CC(C)c1cnn2c(NCc3ccc(C(F)(F)F)cc3)cc(N[C@H]3CNC[C@H]3O)nc12 [PPDA-017]	11400 nM	–	–	12800 nM	–	–	–	–	754 nM	1890 nM	0.7 fold	0.4 fold	1350 nM	–	–	–	–	–
CO[C@@H]1CCNCC1Nc1cc(NCc2ccccc2)n2ncc(C(C)C)c2n1 (stereo partly shown) [PPDA-023]	5600 nM	–	–	3700 nM	–	–	–	–	450 nM	60 nM	20 fold	7.5 fold	1200 nM	–	–	–	–	–
CC(C)c1cnn2c(NCc3ccccc3)cc(N[C@@H]3CN[C@H](CO)C3)nc12 [PPDA-026, ((2S,4S)-4-(7-(Benzylamino)-3-iso-propylpyrazolo[1,5-a]pyrimidin-5-ylamino)pyrrolidin-2-yl)methanol hydrochloride]	10700 nM	–	–	2000 nM	–	–	–	–	203 nM	89 nM	1.8 fold	2.3 fold	162 nM	–	–	–	–	–
COC[C@H]1C[C@@H](Nc2cc(NCc3ccccc3)n3ncc(C(C)C)c3n2)CN1 [PPDA-027]	8900 nM	–	–	3400 nM	–	–	–	–	680 nM	18 nM	14 fold	38 fold	253 nM	–	–	–	–	–
CC(C)c1cnn2c(NCc3ccccc3)cc(N[C@H]3CN[C@@H](CO)C3)nc12 [PPDA-028]	7300 nM	–	–	3300 nM	–	–	–	–	262 nM	43 nM	93 fold	6.1 fold	4010 nM	–	–	–	–	–
